Data published in US20260250318A1, “COMPOSITIONS AND METHODS FOR CROSSING THE BLOOD BRAIN BARRIER” (VOYAGER THERAPEUTICS, INC., priority 2022, published 2026).

What was measured:
Settings in all cases: synthetic library passage 3, intravenous, relative to wild-type AAV9
[1] = test system: brain, spinal cord, and DRG of the NHPs; experiment: NGS fold enrichment of synthetic library (passage 3) in NHPs, first cross-species screen; format: in vivo, cynomolgus macaques (Macaca fascicularis)
Outline: (§1)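 Synthetic capsid library (passage 3) was given intravenously […] to NHPs aged 2-4 years and to BALB/c and C57Bl/6 mice (n=3 each, 6-8 weeks). After about 28 days in vivo, tissue RNA was RT-PCR amplified and NGS-sequenced; values are fold enrichment per variant relative to wild-type AAV9.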

[2] = test system: brain; experiment: NGS fold enrichment of synthetic library (passage 3) in BALB/c mice, first cross-species screen; format: in vivo
Outline: as §1

[3] = test system: brain; experiment: NGS fold enrichment of synthetic library (passage 3) in C57Bl/6 mice, first cross-species screen; format: in vivo
Outline: as §1

[4] = RNA from spinal cord of NHPs, NGS
[5] = RNA from brain of BALB/c mice, NGS
[6] = RNA from brain of C57Bl/6 mice, NGS

Sequence	Fold enrichment over AAV9 in the brain of NHPs ([1]; RNA NGS, brain of NHPs) [fold]	Fold enrichment over AAV9 in the spinal cord of NHPs ([1]; RNA NGS, spinal cord of NHPs) [fold]	Fold enrichment over AAV9 in the brain of Mice (BALB/c) ([2]; RNA NGS, brain of BALB/c mice) [fold]	Fold enrichment over AAV9 in the brain of Mice (C57Bl/6) ([3]; RNA NGS, brain of C57Bl/6 mice) [fold]	Fold enrichment over AAV9 in the brain of NHPs ([1]; RNA from brain of NHPs, NGS) [fold]	Fold enrichment over AAV9 in the spinal cord of NHPs [1, 4] [fold]	Fold enrichment over AAV9 in the brain of Mice (BALB/c) [2, 5] [fold]	Fold enrichment over AAV9 in the brain of Mice (C57Bl/6) [3, 6] [fold]
GSGQNQQTAIYRNI	1.854	2.207	1.437	0.818				
GSGQNQQTALEKSL	1.092	0.000	0.702	0.625				
GSGQNQQTALGVKC	1.835	1.343	1.014	1.378				
GSGQNQQTALYNNT					1.307	0.862	0.726	0.660
GSGQNQQTAMRSTT	1.581	2.588	0.665	0.656				
GSGQNQQTGLRQQT	1.533	2.120	1.103	1.217				
GSGQNQQTGMSSVK	2.109	4.544	0.679	1.451				
GSGQNQQTGNPKHT	1.504	5.973	1.139	1.391				
GSGQNQQTGQATHN	0.996	2.199	0.527	0.877				
GSGQNQQTGQHMRV					1.286	4.161	1.635	1.839
GSGQNQQTGSSSRV					1.176	0.580	1.128	0.995
GSGQNQQTHGGLRD	1.519	6.487	1.298	1.913				
GSGQNQQTHPSPCT	1.510	1.003	0.546	1.120				
GSGQNQQTKVGHSA	1.079	1.256	1.019	0.669				
GSGQNQQTLPSLSL	1.084	1.758	0.175	0.527				
GSGQNQQTLRGSLE					1.179	1.812	0.354	0.853
GSGQNQQTLSKPWT	1.743	0.253	0.733	0.845				
